The values below come from publication PMC7602288, “Characterization of Novel Dipeptidyl Peptidase-IV Inhibitory Peptides from Soft-Shelled Turtle Yolk Hydrolysate Using Orthogonal Bioassay-Guided Fractionations Coupled with In Vitro and In Silico Study” (Pharmaceuticals, 2020).

Assay [1] deals with DPP-IV. The note with it: cited from earlier work.
Assay [2] has as its target T1, human Dipeptidyl-peptidase (DPP-IV) (Homo sapiens, UniProt P27487).
T1 construct: purchased Sigma Chemical Co. (St. Louis, MO, USA)
Briefly: Stability of synthesized peptides against DPP-IV (pre-incubation experiment, LC-MS and inhibition assay). Format: biochemical. The settings on record: peptide 500 µM; for DPP-IV inhibitory activity, after pre-incubation: after pre-incubation with DPP-IV 3 h at 37 °C. On the procedure:
The synthetic peptide was pre-incubated with DPP-IV to determine stability against DPP-IV. […] According to the previous method by Nongonierma et al. with slight modification, 50 μL of peptides (500 µM) dissolved in 1% DMSO were pre-incubated with 100 μL of DPP-IV (1 U/μL) in DPP-IV buffer at 37 °C for 3 h. Consequently, 75 µL of pre-incubation mixture was combined with 25 µL of 2 mM NaOH and 25 µL of 1.6 mM Gly-Pro-p-nitroanilide, and further pre-incubated at 37 °C for 10 min. The mixture was added with 25 µL of DPP-IV buffer and then incubated at 37 °C for 60 min. The reaction was ended using 100 µL of 1M sodium acetate at pH 4.0. The absorbance of each reaction was measured at 405 nm in a SpectraMax 190 Microplate Reader (Molecular Devices, LLC, San Jose, CA, USA) to determine DPP-IV inhibitory activity of peptide after a pre-incubation period. The remaining 75 µL of the original mixture was heat-inactivated at 95 °C for 10 min to end enzyme activity after which it was injected into LC-MS to confirm the stability of the peptide.

In assay [3] the target is T1, human Dipeptidyl-peptidase (DPP-IV). Briefly: DPP-IV inhibitory assay (Gly-Pro-p-nitroanilide substrate, absorbance 405 nm). In kind it is biochemical. The settings on record: synthetic peptide; nonlinear regression, five concentrations. From the text: Chinese soft-shelled turtle eggs were collected from Pingtung City, Taiwan. Pepsin (from porcine gastric mucosa), trypsin (from bovine pancreas), α-chymotrypsin (from bovine pancreas, thermolysin (from Geobacillus stearothermophilus), human Dipeptidyl-peptidase (DPP-IV), Gly-Pro-p-nitroaniline (GP_pNA), Iodoacetamide (IAM), and linagliptin were purchased from Sigma Chemical Co. (St. Louis, MO, USA). Formic acid (FA), acetonitrile (ACN), and ammonium bicarbonate (ABC) were acquired from J.T. Baker (Phillipsburg, NJ, USA). Sequencing grade modified trypsin was purchased from Promega (Madison, WI, USA). Trifluoroacetic acid (TFA) was acquired from Alfa Aesar (Lancashire, UK), and Wang resin was obtained from Cleo Salus (Louisville, KY, USA). Deionized water (ddH2O) was collected using the PURELAB® water purification system from ELGA LabWater (Lane End, High Wycombe, UK). All other chemicals used in this study were of reagent grades. HyperSep Retain PEP Polymeric material was purchased from Thermo Scientific Inc. Molecular weight cut-off (3 kDa MWCO) was procured from Millipore (Bedford, MA, USA).
The DPP-IV inhibitory assay was analyzed in triplicate according to the method of Lacroix and Li-Chan using 96-well microplates with slight modification. […] Linagliptin was used as a reference inhibitor in this experiment. All the reagents and samples were dissolved in 1% DMSO buffer. […] The blank and negative control contained 25 µL of 1% DMSO and 25 µL of DPP-IV buffer. The reaction was activated by 50 µL of DPP-IV (1 U/µL) while the blank sample used 50 µL of DPP-IV buffer instead. After 1 h at 37 °C, the mixture was terminated using 100 µL of 1M sodium acetate buffer at pH 4.0. A concentration of peptide that can inhibit fifty percentage of DPP-IV activity was defined as the IC50 value of DPP-IV inhibition peptide. The IC50 value was determined using different concentrations of inhibitor by nonlinear regression of Graphpad Prism 5.0 (GraphPad Software, Inc., La Jolla, CA, USA).

The IC50 is the concentration that inhibits the measured activity by half.

Like-named read-outs stand apart in the source and are kept apart here. Peptide text beside a SMILES is read from it. Where only a bound is given, the exact number is not on record here.

T1 sequence (P27487 whole entry): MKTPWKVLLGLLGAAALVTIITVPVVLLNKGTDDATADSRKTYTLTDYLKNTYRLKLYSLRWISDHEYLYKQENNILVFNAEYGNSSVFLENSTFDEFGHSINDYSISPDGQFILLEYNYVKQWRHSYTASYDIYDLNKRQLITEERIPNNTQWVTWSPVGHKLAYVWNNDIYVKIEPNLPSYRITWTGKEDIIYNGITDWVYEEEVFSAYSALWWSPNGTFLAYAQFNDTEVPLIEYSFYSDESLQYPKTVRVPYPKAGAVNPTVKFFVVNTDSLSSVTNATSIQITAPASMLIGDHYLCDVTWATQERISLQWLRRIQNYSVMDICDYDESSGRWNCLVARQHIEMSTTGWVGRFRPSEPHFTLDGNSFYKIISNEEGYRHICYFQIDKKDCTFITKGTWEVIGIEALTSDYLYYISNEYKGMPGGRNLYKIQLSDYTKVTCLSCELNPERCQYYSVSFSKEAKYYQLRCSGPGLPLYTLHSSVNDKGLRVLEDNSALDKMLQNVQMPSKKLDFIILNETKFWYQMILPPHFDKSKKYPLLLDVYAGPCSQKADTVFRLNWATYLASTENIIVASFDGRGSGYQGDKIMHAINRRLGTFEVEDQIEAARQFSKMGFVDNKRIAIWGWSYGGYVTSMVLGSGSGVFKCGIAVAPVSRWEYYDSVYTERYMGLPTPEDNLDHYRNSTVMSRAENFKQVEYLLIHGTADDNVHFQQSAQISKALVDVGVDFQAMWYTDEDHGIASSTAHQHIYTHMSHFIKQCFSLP

Regarding GGPASGPAV, the half-inhibitory concentration (IC50) in assay [1] (peptides from salmon gelatin) is 8140 µM.

Take `CC(C)C[C@H](NC(=O)[C@H](C)NC(=O)[C@H](CC(C)C)NC(=O)CNC(=O)[C@@H]1CCCN1C(=O)[C@@H](N)C(C)C)C(=O)O` [VPGLAL] (H-VPGLAL-OH): in assay [2], the “DPP-IV inhibitory activity, after pre-incubation” value is listed as 58.66% and the “DPP-IV inhibitory activity, without pre-incubation” value stood at 66.14%. Moreover, the IC50 in assay [3] was found to be 289 ± 11.9 µM.

Regarding ILNKEGINY, the IC50 in assay [1] (peptides from camel milk) was 348 µM.

With `CC(C)C[C@H](NC(=O)[C@@H]1CCCN1C(=O)[C@@H](N)CC(C)C)C(=O)N[C@@H](Cc1ccccc1)C(=O)O` [LPLF] (H-LPLF-OH), in assay [2], the “DPP-IV inhibitory activity, after pre-incubation” value is 41.09% and the “DPP-IV inhibitory activity, without pre-incubation” value is reported as 52.79%. Also, inhibition in assay [3] was half-maximal at 464 ± 5.52 µM (IC50).

Turning to LPLPL, the IC50 in assay [1] (peptides from milk) is 325 µM.

For `CC(C)C[C@H](N)C(=O)N1CCC[C@H]1C(=O)N[C@@H](CO)C(=O)N[C@@H](Cc1c[nH]c2ccccc12)C(=O)O` [LPSW] (H-LPSW-OH), in assay [2], the “DPP-IV inhibitory activity, after pre-incubation” value is listed as 55.22% and the “DPP-IV inhibitory activity, without pre-incubation” value was determined as 76.72%. Inhibition in assay [3] was half-maximal at 270 ± 15.9 µM (IC50).

As to `CC(C)C[C@H](NC(=O)[C@@H]1CCCN1C(=O)[C@H](CC(C)C)NC(=O)CNC(=O)[C@@H](NC(=O)[C@@H](N)CC(C)C)C(C)C)C(=O)O` [LVGLPL] (H-LVGLPL-OH), the IC50 in assay [3] is greater than 2000 µM.

As for `CC(C)C[C@H](NC(=O)[C@H](CCC(N)=O)NC(=O)[C@H](CC(C)C)NC(=O)[C@@H](N)Cc1c[nH]c2ccccc12)C(=O)O` [WLQL] (H-WLQL-OH), in assay [2], the “DPP-IV inhibitory activity, after pre-incubation” value turned out to be 55.28% and the “DPP-IV inhibitory activity, without pre-incubation” value worked out at 53.06%. The same compound had an IC50 in assay [3] of 433 ± 40.3 µM.
